According to patent publication US10168342B2, “Lipid probes and uses thereof” (THE SCRIPPS RESEARCH INSTITUTE, priority 2015, dated 2019):
Read-outs that look alike come from different tables or passages of the source.

Legend:
[1] = target: T1, AEA-DA lipid probe targets in Neuro2a cells (Mus musculus, UniProt Q3UEB3)
T1 sequence (Q3UEB3 1-564): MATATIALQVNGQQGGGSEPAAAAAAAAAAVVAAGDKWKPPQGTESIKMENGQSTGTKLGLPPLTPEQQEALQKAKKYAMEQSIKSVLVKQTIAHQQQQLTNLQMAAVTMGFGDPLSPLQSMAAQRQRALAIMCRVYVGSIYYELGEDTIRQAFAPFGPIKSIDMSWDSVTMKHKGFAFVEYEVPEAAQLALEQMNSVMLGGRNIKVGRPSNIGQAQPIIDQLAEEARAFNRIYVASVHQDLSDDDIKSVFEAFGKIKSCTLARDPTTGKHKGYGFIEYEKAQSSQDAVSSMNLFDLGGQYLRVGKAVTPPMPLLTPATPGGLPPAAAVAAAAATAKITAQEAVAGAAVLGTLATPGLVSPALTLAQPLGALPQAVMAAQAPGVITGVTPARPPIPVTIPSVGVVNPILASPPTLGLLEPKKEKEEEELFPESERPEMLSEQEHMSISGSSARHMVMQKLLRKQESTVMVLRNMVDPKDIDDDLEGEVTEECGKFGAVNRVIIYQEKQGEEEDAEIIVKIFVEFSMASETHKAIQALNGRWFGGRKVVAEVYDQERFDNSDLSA

[2] = target: T2, AEA-DA lipid probe targets in Neuro2a cells (Mus musculus, UniProt Q8C7K6)
T2 sequence (Q8C7K6 23-495): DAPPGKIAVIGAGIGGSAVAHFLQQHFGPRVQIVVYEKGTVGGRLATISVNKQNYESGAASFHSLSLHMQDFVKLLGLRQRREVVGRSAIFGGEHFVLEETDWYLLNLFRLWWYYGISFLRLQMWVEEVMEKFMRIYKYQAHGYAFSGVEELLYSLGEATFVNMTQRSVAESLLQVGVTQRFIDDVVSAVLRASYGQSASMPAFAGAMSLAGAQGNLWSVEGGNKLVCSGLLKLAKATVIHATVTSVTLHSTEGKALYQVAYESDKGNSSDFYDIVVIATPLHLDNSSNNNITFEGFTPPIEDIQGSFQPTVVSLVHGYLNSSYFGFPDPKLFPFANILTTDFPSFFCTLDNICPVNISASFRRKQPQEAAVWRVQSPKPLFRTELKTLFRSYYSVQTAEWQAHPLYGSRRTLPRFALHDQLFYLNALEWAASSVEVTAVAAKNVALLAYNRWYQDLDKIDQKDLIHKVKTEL

[3] = target: T3, AEA-DA lipid probe targets in Neuro2a cells (Mus musculus, UniProt P18572)
T3 sequence (P18572 22-389): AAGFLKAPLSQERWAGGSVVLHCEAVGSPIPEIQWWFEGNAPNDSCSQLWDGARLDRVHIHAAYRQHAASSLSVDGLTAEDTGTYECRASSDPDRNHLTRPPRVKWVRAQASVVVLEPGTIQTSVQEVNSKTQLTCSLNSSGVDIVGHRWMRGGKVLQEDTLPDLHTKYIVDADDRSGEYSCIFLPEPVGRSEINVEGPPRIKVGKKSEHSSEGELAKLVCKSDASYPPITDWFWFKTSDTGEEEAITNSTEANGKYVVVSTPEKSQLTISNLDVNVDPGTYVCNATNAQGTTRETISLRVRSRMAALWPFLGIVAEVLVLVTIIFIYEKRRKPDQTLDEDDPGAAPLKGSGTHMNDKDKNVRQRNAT

[4] = target: T4, AEA-DA lipid probe targets in Neuro2a cells (Mus musculus, UniProt Q8VC28)
T4 sequence (Q8VC28 1-323): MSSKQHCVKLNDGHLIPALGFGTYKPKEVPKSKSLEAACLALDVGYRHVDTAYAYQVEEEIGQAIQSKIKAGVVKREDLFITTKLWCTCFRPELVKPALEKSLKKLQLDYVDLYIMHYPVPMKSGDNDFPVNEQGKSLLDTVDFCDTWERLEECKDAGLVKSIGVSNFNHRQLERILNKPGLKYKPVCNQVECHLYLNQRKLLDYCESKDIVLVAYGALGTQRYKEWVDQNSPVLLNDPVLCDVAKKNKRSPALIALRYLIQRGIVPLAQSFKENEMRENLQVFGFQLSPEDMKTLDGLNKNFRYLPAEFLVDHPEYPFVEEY

[5] = target: AEA-DA lipid probe targets in Neuro2a cells (Mus musculus, UniProt P57716)
Chain of AEA-DA lipid probe targets in Neuro2a cells (Mus musculus, UniProt P57716) (P57716 28-708): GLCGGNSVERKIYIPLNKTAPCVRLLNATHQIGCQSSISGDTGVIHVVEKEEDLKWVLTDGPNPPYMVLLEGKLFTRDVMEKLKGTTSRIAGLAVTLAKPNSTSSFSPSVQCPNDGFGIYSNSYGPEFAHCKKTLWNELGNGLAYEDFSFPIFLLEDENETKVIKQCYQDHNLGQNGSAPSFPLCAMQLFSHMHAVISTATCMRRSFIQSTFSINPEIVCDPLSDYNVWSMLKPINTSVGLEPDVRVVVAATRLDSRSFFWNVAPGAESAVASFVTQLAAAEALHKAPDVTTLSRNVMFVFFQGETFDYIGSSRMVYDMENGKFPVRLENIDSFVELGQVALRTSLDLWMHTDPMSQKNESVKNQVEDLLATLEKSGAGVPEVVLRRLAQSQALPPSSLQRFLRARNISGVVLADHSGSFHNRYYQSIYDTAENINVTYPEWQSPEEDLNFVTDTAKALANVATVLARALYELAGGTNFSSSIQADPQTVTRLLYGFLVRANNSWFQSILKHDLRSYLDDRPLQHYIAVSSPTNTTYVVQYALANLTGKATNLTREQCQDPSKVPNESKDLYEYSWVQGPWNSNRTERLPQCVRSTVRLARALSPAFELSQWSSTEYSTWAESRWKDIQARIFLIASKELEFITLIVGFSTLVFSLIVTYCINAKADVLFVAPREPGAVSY

[6] = target: T5, AEA-DA lipid probe targets in Neuro2a cells (Mus musculus, UniProt Q61753)
T5 sequence (Q61753 1-533): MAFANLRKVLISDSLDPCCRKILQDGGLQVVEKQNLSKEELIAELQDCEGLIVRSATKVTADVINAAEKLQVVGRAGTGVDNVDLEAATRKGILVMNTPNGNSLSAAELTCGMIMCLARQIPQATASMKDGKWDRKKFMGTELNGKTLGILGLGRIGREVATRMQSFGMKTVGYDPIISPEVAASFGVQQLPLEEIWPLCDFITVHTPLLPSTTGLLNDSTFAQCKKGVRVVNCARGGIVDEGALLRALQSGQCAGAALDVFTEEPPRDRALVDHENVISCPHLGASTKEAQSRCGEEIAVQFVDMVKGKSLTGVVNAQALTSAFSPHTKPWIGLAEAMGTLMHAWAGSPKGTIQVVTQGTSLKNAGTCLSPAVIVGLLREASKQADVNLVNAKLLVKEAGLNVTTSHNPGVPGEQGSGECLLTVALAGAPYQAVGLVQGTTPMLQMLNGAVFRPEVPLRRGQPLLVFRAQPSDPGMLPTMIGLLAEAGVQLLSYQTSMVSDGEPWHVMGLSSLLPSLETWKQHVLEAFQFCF

SMILES	SILAC ratio Puf60 ([1]; competitor 25 μM)	SILAC ratio Pcyox11 ([2]; competitor 25 μM)	SILAC ratio Bsg ([3]; competitor 25 μM)	SILAC ratio Akr1c13 ([4]; competitor 25 μM)	SILAC ratio Ncstn ([5]; competitor 25 μM)	SILAC ratio Phgdh ([6]; competitor 25 μM)	other results
O=C(/C=C/c1cccnc1)NCCCCC1CCN(C(=O)c2ccccc2)CC1 [FK-866, reference compound]	1.3	1.3	1.0	1.0	1.1	1.3	
CCCCC/C=C\C/C=C\C/C=C\C/C=C\CCCC(=O)NCCO [AEA, anandamide, reference compound]							SILAC ratio Puf60 ([1]; competitor 200 μM): 1.3; SILAC ratio Pcyox11 ([2]; competitor 200 μM): 1.5; SILAC ratio Bsg ([3]; competitor 200 μM): 1.3; SILAC ratio Akr1c13 ([4]; competitor 200 μM): 1.7; SILAC ratio Ncstn ([5]; competitor 200 μM): 1.6; SILAC ratio Phgdh ([6]; competitor 200 μM): 1.2
CN1CCN(C(=O)c2c(-c3ccccc3)c3cc([N+](=O)[O-])ccc3n2C)CC1 [KML110, (1-Methyl-5-nitro-3-phenyl-1H-indol-2-yl)(4-methylpiperazin-1-yl)methanone]	1.3	2.0	1.3	1.1	1.3	1.5	
C=CCN(C)CCCCCCOc1ccc(C(=O)c2ccc(Br)cc2)c(F)c1 [Ro 48-8071, reference compound]	1.0	1.0	1.1	1.0	1.0	1.0	
CN1CCN(C(=O)c2[nH]c3ccc([N+](=O)[O-])cc3c2-c2ccccc2)CC1 [MJN228, (4-Methylpiperazin-1-yl)(5-nitro-3-phenyl-1H-indol-2-yl)methanone]	1.2	1.8	1.6	1.0	1.6	1.1	SILAC ratio Puf60 ([1]; competitor 10 μM): 1.4; SILAC ratio Puf60 ([1]; competitor 50 μM): 1.0; SILAC ratio Puf60 ([1]; competitor 100 μM): 1.2; SILAC ratio Pcyox11 ([2]; competitor 10 μM): 1.2; SILAC ratio Pcyox11 ([2]; competitor 50 μM): 1.7; SILAC ratio Pcyox11 ([2]; competitor 100 μM): 2.5; SILAC ratio Bsg ([3]; competitor 10 μM): 1.4; SILAC ratio Bsg ([3]; competitor 50 μM): 1.2; SILAC ratio Bsg ([3]; competitor 100 μM): 1.6; SILAC ratio Akr1c13 ([4]; competitor 50 μM): 1.0; SILAC ratio Ncstn ([5]; competitor 10 μM): 1.3; SILAC ratio Ncstn ([5]; competitor 50 μM): 1.2; SILAC ratio Ncstn ([5]; competitor 100 μM): 1.8; SILAC ratio Phgdh ([6]; competitor 10 μM): 1.2; SILAC ratio Phgdh ([6]; competitor 50 μM): 0.9; SILAC ratio Phgdh ([6]; competitor 100 μM): 1.1
